According to patent US10517889B2, “Modulators of SMAD7 expression” (Ionis Pharmaceuticals, Inc., priority 2017, dated 2019):
Strand notation (5' to 3'): a small letter for the sugar, then the base; units joined by * are phosphorothioate-linked, units joined directly phosphodiester-linked; [ ] holds rarer units or linkages, { } end groups; capitals alone tell only the bases. k = constrained ethyl (cEt); [5mC] = 5-methylcytosine; d = 2'-deoxy (DNA)

test system: human SMAD7 mRNA; assay: Antisense inhibition of human SMAD7 mRNA expression in Hep3B cells by 3-10-3 cEt gapmers, 10,000 nM, electroporation (Example 2); assay type: cell-based; settings: Hep3B cells, 10,000 nM antisense oligonucleotide, electroporation, approximately 24 hours, RT-PCR primer probe set RTS5062, relative to untreated control cells
Summary of the method: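 Hep3B, 20,000 cells/well; electroporation, 10,000 nM ASO; ~24 h. Readout: SMAD7 mRNA by qRT-PCR (RTS5062), RIBOGREEN-normalised; % inhibition vs untreated.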

Row | Substance | % Inhibition
1 | 798853 (k[5mC]*k[5mC]*kA*d[5mC]*dA*d[5mC]*dA*d[5mC]*d[5mC]*dA*dT*d[5mC]*d[5mC]*kA*k[5mC]*k[5mC]; antisense) [compound 798853] | 7%
2 | 798854 (kT*kA*k[5mC]*dA*d[5mC]*d[5mC]*d[5mC]*dA*d[5mC]*dA*d[5mC]*dA*d[5mC]*k[5mC]*kA*kT; antisense) [compound 798854] | 25%
3 | 798855 (kT*kT*kG*dT*dA*d[5mC]*dA*d[5mC]*d[5mC]*d[5mC]*dA*d[5mC]*dA*k[5mC]*kA*k[5mC]; antisense) [compound 798855] | 11%
4 | 798856 (kT*kG*k[5mC]*dG*dG*dT*dT*dG*dT*dA*d[5mC]*dA*d[5mC]*k[5mC]*k[5mC]*kA; antisense) [compound 798856] | 67%
5 | 798857 (kT*kG*k[5mC]*dT*dG*d[5mC]*dG*dG*dT*dT*dG*dT*dA*k[5mC]*kA*k[5mC]; antisense) [compound 798857] | 11%
6 | 798858 (kG*kG*kT*dA*dA*d[5mC]*dT*dG*d[5mC]*dT*dG*d[5mC]*dG*kG*kT*kT; antisense) [compound 798858] | 46%
7 | 798859 (k[5mC]*kG*kG*dA*d[5mC]*dT*dT*dG*dA*dT*dG*dA*dA*kG*kA*kT; antisense) [compound 798859] | 14%
8 | 798860 (kT*kG*kG*d[5mC]*dG*dG*dA*d[5mC]*dT*dT*dG*dA*dT*kG*kA*kA; antisense) [compound 798860] | 22%
9 | 798871 (kA*kA*kA*dG*d[5mC]*d[5mC]*dT*dT*dG*dA*dT*dG*dG*kA*kG*kA; antisense) [compound 798871] | 20%
10 | 798872 (kT*kA*kG*dT*d[5mC]*dG*dA*dA*dA*dG*d[5mC]*d[5mC]*dT*kT*kG*kA; antisense) [compound 798872] | 2%
11 | 798873 (kG*k[5mC]*kT*dG*dT*dA*d[5mC]*dG*d[5mC]*d[5mC]*dT*dT*d[5mC]*kT*k[5mC]*kG; antisense) [compound 798873] | 27%
12 | 798874 (kG*k[5mC]*kA*dG*dG*d[5mC]*dT*dG*dT*dA*d[5mC]*dG*d[5mC]*k[5mC]*kT*kT; antisense) [compound 798874] | 27%
13 | 798875 (k[5mC]*kG*k[5mC]*dT*dG*d[5mC]*dA*dG*dG*d[5mC]*dT*dG*dT*kA*k[5mC]*kG; antisense) [compound 798875] | 58%
14 | 798876 (kG*kG*k[5mC]*d[5mC]*dG*d[5mC]*dT*dG*d[5mC]*dA*dG*dG*d[5mC]*kT*kG*kT; antisense) [compound 798876] | 50%
15 | 798877 (k[5mC]*kA*kT*dT*dG*dG*dG*d[5mC]*d[5mC]*dG*d[5mC]*dT*dG*k[5mC]*kA*kG; antisense) [compound 798877] | 24%
16 | 798878 (k[5mC]*kT*kG*d[5mC]*dT*dG*d[5mC]*dA*dT*dA*dA*dA*d[5mC]*kT*k[5mC]*kG; antisense) [compound 798878] | 49%
17 | 798889 (k[5mC]*kA*k[5mC]*dA*dA*dA*dG*d[5mC]*dT*dG*dA*dT*d[5mC]*kT*kG*k[5mC]; antisense) [compound 798889] | 0%
18 | 798890 (k[5mC]*kT*kT*d[5mC]*dA*d[5mC]*dA*dA*dA*dG*d[5mC]*dT*dG*kA*kT*k[5mC]; antisense) [compound 798890] | 40%
19 | 798891 (kG*k[5mC]*k[5mC]*d[5mC]*dT*dT*d[5mC]*dA*d[5mC]*dA*dA*dA*dG*k[5mC]*kT*kG; antisense) [compound 798891] | 58%
20 | 798892 (k[5mC]*k[5mC]*k[5mC]*d[5mC]*dA*dG*d[5mC]*d[5mC]*d[5mC]*dT*dT*d[5mC]*dA*k[5mC]*kA*kA; antisense) [compound 798892] | 39%
21 | 798893 (kT*kG*kG*d[5mC]*d[5mC]*d[5mC]*d[5mC]*dA*dG*d[5mC]*d[5mC]*d[5mC]*dT*kT*k[5mC]*kA; antisense) [compound 798893] | 77%
22 | 798894 (kA*kG*k[5mC]*dA*d[5mC]*dT*dG*dG*d[5mC]*d[5mC]*d[5mC]*d[5mC]*dA*kG*k[5mC]*k[5mC]; antisense) [compound 798894] | 55%
23 | 798895 (kT*kG*kT*dA*dG*d[5mC]*dA*d[5mC]*dT*dG*dG*d[5mC]*d[5mC]*k[5mC]*k[5mC]*kA; antisense) [compound 798895] | 53%
24 | 798896 (kG*kG*kG*dT*dG*dT*dA*dG*d[5mC]*dA*d[5mC]*dT*dG*kG*k[5mC]*k[5mC]; antisense) [compound 798896] | 46%
25 | 798897 (kG*kG*k[5mC]*dG*dG*dG*dT*dG*dT*dA*dG*d[5mC]*dA*k[5mC]*kT*kG; antisense) [compound 798897] | 60%

same assay, conditions: Hep3B cells, electroporation with 10,000 nM antisense oligonucleotide, approximately 24 hours, SMAD7 mRNA by RT-PCR (RTS5062), relative to untreated control cells

Row | Substance | % Inhibition
26 | 798861 (kG*kT*kG*dT*dG*dG*d[5mC]*dG*dG*dA*d[5mC]*dT*dT*kG*kA*kT; antisense) [compound 798861] | 24%
27 | 798862 (kT*k[5mC]*k[5mC]*dA*dG*dT*dG*dT*dG*dG*d[5mC]*dG*dG*kA*k[5mC]*kT; antisense) [compound 798862] | 20%
28 | 798863 (kG*kG*kG*dT*dT*dG*dT*d[5mC]*d[5mC]*dA*dG*dT*dG*kT*kG*kG; antisense) [compound 798863] | 41%
29 | 798864 (kG*kT*k[5mC]*d[5mC]*dG*dG*dG*dT*dT*dG*dT*d[5mC]*d[5mC]*kA*kG*kT; antisense) [compound 798864] | 33%
30 | 798865 (kG*kG*kA*dG*dT*d[5mC]*d[5mC]*dG*dG*dG*dT*dT*dG*kT*k[5mC]*k[5mC]; antisense) [compound 798865] | 8%
31 | 798866 (kG*kT*k[5mC]*d[5mC]*dT*dG*dG*dA*dG*dT*d[5mC]*d[5mC]*dG*kG*kG*kT; antisense) [compound 798866] | 20%
32 | 798867 (kT*kT*kG*dT*dG*dT*dA*d[5mC]*d[5mC]*dA*dA*d[5mC]*dA*kG*k[5mC]*kG; antisense) [compound 798867] | 29%
33 | 798868 (kA*k[5mC]*k[5mC]*dT*dT*dG*dT*dG*dT*dA*d[5mC]*d[5mC]*dA*kA*k[5mC]*kA; antisense) [compound 798868] | 48%
34 | 798869 (kA*kA*k[5mC]*dA*d[5mC]*d[5mC]*dT*dT*dG*dT*dG*dT*dA*k[5mC]*k[5mC]*kA; antisense) [compound 798869] | 41%
35 | 798870 (kG*kG*kG*dA*dA*d[5mC]*dA*d[5mC]*d[5mC]*dT*dT*dG*dT*kG*kT*kA; antisense) [compound 798870] | 14%
36 | 798879 (kA*k[5mC]*kG*dG*d[5mC]*dT*dG*d[5mC]*dT*dG*d[5mC]*dA*dT*kA*kA*kA; antisense) [compound 798879] | 57%
37 | 798880 (kT*k[5mC]*k[5mC]*dA*d[5mC]*dG*dG*d[5mC]*dT*dG*d[5mC]*dT*dG*k[5mC]*kA*kT; antisense) [compound 798880] | 37%
38 | 798881 (k[5mC]*k[5mC]*kG*dT*d[5mC]*d[5mC]*dA*d[5mC]*dG*dG*d[5mC]*dT*dG*k[5mC]*kT*kG; antisense) [compound 798881] | 14%
39 | 798882 (kA*kG*k[5mC]*d[5mC]*d[5mC]*dG*dT*d[5mC]*d[5mC]*dA*d[5mC]*dG*dG*k[5mC]*kT*kG; antisense) [compound 798882] | 0%
40 | 798883 (kT*kA*kA*dA*dG*d[5mC]*d[5mC]*d[5mC]*dG*dT*d[5mC]*d[5mC]*dA*k[5mC]*kG*kG; antisense) [compound 798883] | 0%
41 | 798884 (k[5mC]*kG*kG*dT*dA*dA*dA*dG*d[5mC]*d[5mC]*d[5mC]*dG*dT*k[5mC]*k[5mC]*kA; antisense) [compound 798884] | 15%
42 | 798885 (kG*k[5mC]*kA*d[5mC]*dG*dG*dT*dA*dA*dA*dG*d[5mC]*d[5mC]*k[5mC]*kG*kT; antisense) [compound 798885] | 43%
43 | 798886 (kT*k[5mC]*kT*dG*d[5mC]*dA*d[5mC]*dG*dG*dT*dA*dA*dA*kG*k[5mC]*k[5mC]; antisense) [compound 798886] | 29%
44 | 798887 (k[5mC]*kT*kG*dA*dT*d[5mC]*dT*dG*d[5mC]*dA*d[5mC]*dG*dG*kT*kA*kA; antisense) [compound 798887] | 26%
45 | 798888 (kA*kA*kA*dG*d[5mC]*dT*dG*dA*dT*d[5mC]*dT*dG*d[5mC]*kA*k[5mC]*kG; antisense) [compound 798888] | 40%
46 | 798898 (kA*kG*k[5mC]*dT*dG*d[5mC]*dT*dG*dA*dT*dG*dA*dA*k[5mC]*kT*kG; antisense) [compound 798898] | 2%
47 | 798899 (kG*kG*k[5mC]*dA*dG*d[5mC]*dT*dG*d[5mC]*dT*dG*dA*dT*kG*kA*kA; antisense) [compound 798899] | 13%
48 | 798900 (k[5mC]*k[5mC]*kA*dG*d[5mC]*dA*d[5mC]*dG*dG*dG*d[5mC]*dA*dG*k[5mC]*kT*kG; antisense) [compound 798900] | 0%
49 | 798901 (k[5mC]*k[5mC]*kT*d[5mC]*dT*dA*dG*d[5mC]*d[5mC]*dA*dG*d[5mC]*dA*k[5mC]*kG*kG; antisense) [compound 798901] | 30%
50 | 798902 (kT*kG*kA*d[5mC]*d[5mC]*dT*d[5mC]*dT*dA*dG*d[5mC]*d[5mC]*dA*kG*k[5mC]*kA; antisense) [compound 798902] | 54%
51 | 798903 (kA*kA*kG*dA*dT*dG*dA*d[5mC]*d[5mC]*dT*d[5mC]*dT*dA*kG*k[5mC]*k[5mC]; antisense) [compound 798903] | 48%
52 | 798904 (kT*kT*kG*dA*dA*dG*dA*dT*dG*dA*d[5mC]*d[5mC]*dT*k[5mC]*kT*kA; antisense) [compound 798904] | 23%
